From US7462600B2, “Macrolides” (Pfizer Inc, priority 2004, dated 2008)
Values after ≈ are worked out from the molar mass of the structure shown.

What was measured:
Assay type in all cases: cell-based
[1] = test system: Streptococcus pneumoniae 1016; assay: MIC, microtiter broth dilution (NCCLS M100-S14), S. pneumoniae 1016 (susceptible); settings: S. pneumoniae 1016 (susceptible)
In short: (§1)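 Where available, resistant strains were tested alongside the susceptible parent they derive from. The MIC, determined by tray-based broth dilution and NCCLS M100-S14 interpretation, served as the comparison value.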

[2] = test system: Streptococcus pneumoniae 1095; settings: S. pneumoniae 1095 (ermB); microtiter broth dilution
In short: as §1

[3] = test system: Streptococcus pneumoniae 1175; settings: S. pneumoniae 1175 (mefA); microtiter broth dilution
In short: as §1

[4] = test system: Streptococcus pyogenes 1079; assay: MIC, microtiter broth dilution (NCCLS M100-S14), S. pyogenes 1079 (ermB); settings: S. pyogenes 1079 (ermB)
In short: as §1

[5] = test system: Haemophilus influenzae 1218; assay: MIC, microtiter broth dilution (NCCLS M100-S14), H. influenzae 1218 (susceptible); settings: H. influenzae 1218 (susceptible)
In short: as §1

CCC1OC(=O)C(C)C(=O)C(C)C(OC2OC(C)CC(N(C)C)C2O)C(C)(OC)CC(C)C(=O)C(C)C2N(CC3CCN(Cc4ccnc5ccccc45)C3)C(=O)OC12C [Example 11.11, 3-descladinosyl-11,12-dideoxy-6-O-methyl-3-oxo-12,11-(oxycarbonyl-(1-((quinolin-4-yl)-methyl)-((S)-pyrrolidin-3-yl)-methyl)-imino)-erythromycin A]
MIC S. pneumo. 1016 [1]: <0.06 µg/mL | MIC S. pneumo. 1095 [2]: 0.12 µg/mL (≈ 0.143 µM) | MIC S. pneumo. 1175 [3]: 0.12 µg/mL (≈ 0.143 µM) | MIC S. pyogenes 1079 [4]: 8 µg/mL (≈ 9.56 µM) | MIC H. influenzae 1218 [5]: 1 µg/mL (≈ 1.19 µM)
